Results taken from patent publication US20230109839A1, “THERAPEUTIC AGENT FOR TAUOPATHIES” (SUMITOMO PHARMA CO., LTD., priority 2020, published 2023).
Where two headings read alike, the source gives them in different places.

Target: T1, human Nav1.1 (Homo sapiens, UniProt P35498)
T1 construct: host or cells: HEK293
Test: Amplification of Nav1.1-derived voltage-gated sodium current (Nav1.1 current), automated patch clamp (Test 1)
Assay type: cell-based
Procedure, shortened: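 HEK293 cells stably expressing human Nav1.1, restricted to cells with >500 pA current, were recorded by automated voltage-clamp patch clamp with a ramp voltage stimulus. Compounds were applied in HEPES-buffered extracellular solution with 1% DMSO. Amplification (%) = 100×(peak or AUC after/before compound)−100.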

[1] = Concentration for evaluation 1 μM, HEK293 cell line stably expressing human Nav1.1
[2] = Concentration for evaluation 10 μM, HEK293 cell line stably expressing human Nav1.1
[3] = HEK293, Concentration for evaluation 1 μM, HEK293 cell line stably expressing human Nav1.1, read-out: Nav1.1 current amplification rate (%)
[4] = Concentration for evaluation 3 μM, HEK293 cell line stably expressing human Nav1.1
[5] = concentration for evaluation 1 μM, HEK293 stably expressing human Nav1.1
[6] = HEK293, concentration for evaluation 1 μM, HEK293 stably expressing human Nav1.1, read-out: Nav1.1 current amplification rate (%)
[7] = Concentration for evaluation 50 μM, HEK293 cell line stably expressing human Nav1.1

## CN(c1cnc2cnn(CC(=O)Nc3ccc4cnncc4c3)c2n1)C1CC1 [Example 733]
[1]
  Nav1.1 current amplification rate (%): 76%

## CN(c1cnc2cnn(CC(=O)Nc3ccc4ccncc4n3)c2n1)C1CC1 [Example 724]
[1]
  Nav1.1 current amplification rate (%): 28%

## CN(C)c1nc2cc(NC(=O)Cn3ncc4ncc(N(C)C5CCCC5)nc43)ccc2o1 [Example 674]
[1]
  Nav1.1 current amplification rate (%): 62%

## CN(c1ncc2cnn(CC(=O)Nc3ccc4ncnn4c3)c2n1)C1CC(C)(C)C1 [Example 668]
[1]
  Nav1.1 current amplification rate (%): 72%

## CC1CC=C(c2ccc(=O)n(CC(=O)N3CCc4c(C5CN(C(C)C)C5)cccc43)n2)CC1 (centres unmarked) [Example 304]
[2]
  Nav1.1 current amplification rate (%): 167%

## CC1(C)CC=C(c2ccc(=O)n(CC(=O)N3CCc4c(N5CCOCC5)cccc43)n2)C1 [Example 475]
[2]
  Nav1.1 current amplification rate (%): 633%

## CC(C)CN(C)c1cnc2cnn(CC(=O)Nc3ccn4ncnc4c3)c2n1 [Example 573, 2-{6-[Methyl(2-methylpropyl)amino]-1H-pyrazolo[3,4-b]pyrazin-1-yl}-N-([1,2,4]triazolo[1,5-a]pyridin-7-yl) acetamide]
[3]
  activation at 1 µM: 44%

## CN(c1cnc2cnn(CC(=O)Nc3cnc4cccnc4c3)c2n1)C1CC2(CC2)C1 [Example 752]
[3]
  activation at 1 µM: 135%

## N#Cc1ccc(NC(=O)Cn2nc(C3CCC(F)(F)CC3)ccc2=O)cc1 [Example 47]
[2]
  Nav1.1 current amplification rate (%): 11%

## CN(C)c1cc(N2CCC3(CCC3)C2)nn(CC(=O)Nc2ccn3ccnc3c2)c1=O [Example 210]
HEK293, Concentration for evaluation 10 μM, HEK293 cell line stably expressing human Nav1.1, read-out: Nav1.1 current amplification rate (%)
  activation at 10 µM: 178%

## COc1ccc(N2CCN(C(=O)Cn3nc(C4=CCC(C)CC4)ccc3=O)CC2)cn1 (centres unmarked) [Example 407]
[4]
  Nav1.1 current amplification rate (%): 113%

## CC1CC=C(c2ccc(=O)n(CC(=O)Nc3ccn4nncc4c3)n2)CC1 (centres unmarked) [Example 342]
[1]
  Nav1.1 current amplification rate (%): 109%

## N#Cc1ccc(NC(=O)Cn2nc(N3CCCC3)ccc2=O)cc1 [Example 4]
[2]
  Nav1.1 current amplification rate (%): 3%

## Cc1nn(CC(=O)Nc2ccn3ncnc3c2)c2nc(N3CCC4(CCC4)C3)cnc12 [Example 738]
HEK293, Concentration for evaluation 3 μM, HEK293 cell line stably expressing human Nav1.1, read-out: Nav1.1 current amplification rate (%)
  activation at 3 µM: 22%

## CN(c1cnc2cnn(CC(=O)Nc3cccnc3)c2n1)C1CC1 [Example 726]
[2]
  Nav1.1 current amplification rate (%): 31%

## CC(C1CCC1)N(C)c1cnc2cnn(CC(=O)Nc3ccn4ncnc4c3)c2n1 (centres unmarked) [Example 634]
[1]
  Nav1.1 current amplification rate (%): 13%

## CC1CCN(c2ccc(=O)n(CC(=O)Nc3ccc(C(=O)N4CCCC4)cc3)n2)CC1 [Example 79]
[2]
  Nav1.1 current amplification rate (%): 165%

## N#Cc1ccc(NC(=O)Cn2nc(N3CCC4(CC3)COC4)ccc2=O)cc1 [Example 27]
[2]
  Nav1.1 current amplification rate (%): 5%

## CC1CC=C(c2ccc3cnn(CC(=O)Nc4ccn5ccnc5c4)c3n2)CC1 (centres unmarked) [Example 864]
[5]
  Nav1.1 current amplification rate (%): 160%

## CN(CC1(C)CC1)c1ncc2cnn(CC(=O)Nc3cnc4cccnc4c3)c2n1 [Example 851]
[6]
  activation at 1 µM: 89%

## CC1CCN(c2ccc(=O)n(CC(=O)Nc3ccc4c(c3)CCNC4=O)n2)CC1 [Example 93]
[2]
  Nav1.1 current amplification rate (%): 65%

## Cc1cc(NC(=O)Cn2ncc3ncc(N(C)CC4CC4)nc32)cc2ncnn12 [Example 745]
[3]
  activation at 1 µM: 43%

## COCOc1cccc2c1CCN2C(=O)Cn1nc(C2=CCC(C)(C)CC2)ccc1=O [Example 435]
[2]
  Nav1.1 current amplification rate (%): 262%

## CC1CC=C(c2ccc(=O)n(CC(=O)Nc3cnc4nccn4c3)n2)CC1 (centres unmarked) [Example 337]
[1]
  Nav1.1 current amplification rate (%): 52%

## CN(CC1CCC1)c1ncc2cnn(CC(=O)Nc3ccc(C#N)nc3)c2n1 [Example 840]
[6]
  activation at 1 µM: 164%

## CC1CCN(c2ccc(=O)n(CC(=O)Nc3ccnc(C(F)(F)F)c3)n2)CC1 [Example 52]
[2]
  Nav1.1 current amplification rate (%): 248%

## CC1(C)CC=C(c2ccc(=O)n(CC(=O)Nc3ccc4c(c3)OCC4)n2)CC1 [Example 426]
[2]
  Nav1.1 current amplification rate (%): 244%

## CC1CCN(c2ccc3cnn(CC(=O)Nc4ccn5ncnc5c4)c3n2)CC1 [Example 853]
[5]
  Nav1.1 current amplification rate (%): 82%

## COc1cc(=O)n(CC(=O)Nc2ccn3ccnc3c2)nc1C1=CCC(C)(C)CC1 [Example 459]
[2]
  Nav1.1 current amplification rate (%): 118%

## CCc1nc2cc(NC(=O)Cn3nc(N4CCC(C)CC4)ccc3=O)ccc2o1 [Example 97]
[2]
  Nav1.1 current amplification rate (%): 296%

## Cc1ccc(F)c(Nc2ncc3cnn(CC(=O)Nc4ccn5ncnc5c4)c3n2)c1 [Example 776]
[7]
  Nav1.1 current amplification rate (%): 17%

## C#CCN(C)c1cnc2cnn(CC(=O)Nc3ccc4ncnn4c3)c2n1 [Example 662]
[7]
  Nav1.1 current amplification rate (%): 47%

## CC1CC=C(c2ccc(=O)n(CC(=O)Nc3cc4nccn4cc3C#N)n2)CC1 (centres unmarked) [Example 359]
[2]
  Nav1.1 current amplification rate (%): 26%

## COCc1nc2cc(NC(=O)Cn3nc(C4=CCC(C)CC4)ccc3=O)ccc2o1 (centres unmarked) [Example 325]
[4]
  Nav1.1 current amplification rate (%): 233%

## Cc1ccc(-c2ncc3cnn(CC(=O)Nc4ccn5ncnc5c4)c3n2)o1 [Example 772]
[7]
  Nav1.1 current amplification rate (%): 35%

## CC1CC=C(c2cnc3cnn(CC(=O)Nc4ccn5ncnc5c4)c3n2)CC1 (centres unmarked) [Example 895, 2-[6-(4-methylcyclohex-1-en-1-yl)-1H-pyrazolo[3,4-b]pyrazin-1-yl]-N-([1,2,4]triazolo[1,5-a]pyridin-7-yl)acetamide]
[6]
  activation at 1 µM: 244%

## CC1CCN(c2ccc(=O)n(CC(=O)Nc3ccnc(C#N)c3)n2)CC1 [Example 53]
[2]
  Nav1.1 current amplification rate (%): 161%

## CC1CCN(c2ncc3cnn(CC(=O)Nc4ccc(C#N)nc4)c3n2)CC1(F)F (centres unmarked) [Example 843]
[6]
  activation at 1 µM: 171%

## Cc1ccc(-c2cnc3cnn(CC(=O)Nc4ccn5ncnc5c4)c3n2)c(F)c1 [Example 574, 2-[6-(2-Fluoro-4-methylphenyl)-1H-pyrazolo[3,4-b]pyrazin-1-yl]-N-([1,2,4]triazolo[1,5-a]pyridin-7-yl)acetamide]
[3]
  activation at 1 µM: 303%

## CC1(C)CC=C(c2ccc(=O)n(CC(=O)N3CCC4(CCOCC4)CC3)n2)CC1 [Example 441]
[2]
  Nav1.1 current amplification rate (%): 30%

## Cc1cc(=O)n(CC(=O)Nc2ccn3ccnc3c2)nc1C1=CCC(C)(C)CC1 [Example 461]
[2]
  Nav1.1 current amplification rate (%): 337%

## CN(c1cnc2cnn(CC(=O)Nc3ccc(C#N)nc3)c2n1)C1CCCC1 [Example 683]
[1]
  Nav1.1 current amplification rate (%): 63%

## CC1CCN(c2ccc(=O)n(CC(=O)Nc3ccc(C(F)(F)F)nc3)n2)CC1 [Example 59]
[2]
  Nav1.1 current amplification rate (%): 180%

## CN(c1ccc2cnn(CC(=O)Nc3cnc4cccnc4c3)c2n1)C1CC1 [Example 888]
[6]
  activation at 1 µM: 101%

## CC1CC=C(c2ccc(=O)n(CC(=O)N3CCc4c(CO)cccc43)n2)CC1 (centres unmarked) [Example 266]
[4]
  Nav1.1 current amplification rate (%): 108%

## COc1cnc(C)c(N2CCN(C(=O)Cn3nc(C4=CCC(C)CC4)ccc3=O)CC2)c1 (centres unmarked) [Example 418]
[4]
  Nav1.1 current amplification rate (%): 105%

## Cc1cn(Cc2cccc3c2CCN3C(=O)Cn2nc(C3=CCC(C)CC3)ccc2=O)cn1 (centres unmarked) [Example 288]
[1]
  Nav1.1 current amplification rate (%): 115%
